From patent US11690922B2, “Lipid compound as well as lipid carrier, nucleic acid lipid nanoparticle composition and pharmaceutical preparation containing same” (Purecodon (Hong Kong) Biopharma Ltd., priority 2021, dated 2023)

Key:
[1] = Particle size, PDI, Zeta and entrapment efficiency of each LNP@mRNA; type: physicochemical; settings: for Entrapment efficiency (%) / PDI / Particle size (nm) / Zeta (mV): luciferase mRNA; for particle size of the LNP@mRNA (in words): LNP@mRNA with cholesterol, DSPC, PEG-DMG (Example 25), compared among compounds 1-8
Protocol: Compounds 1-8 were respectively dissolved in ethanol together with cholesterol, DSPC, PEG-DMG at a molar ratio of 50:38.5:10:1.5, luciferase mRNA was dissolved in a 50 mM citric acid buffered saline solution with a pH of 4.0, a volume ratio of the two solutions was 1:3, two phases were rapidly mixed by using microfluidics and a buffer environment was replaced into PBS with a pH of 7.4 by using dialysis or a tangential flow, so as to remove ethanol, and eight LNP@mRNAs were respectively prepared.
Thus, it can be seen that the entrapment efficiency to the nucleic acid drug by the compound provided by the present invention is high, and, using this compound as a carrier can improve the in-vivo delivery efficiency of the nucleic acid drug.
Compounds 13, and 14 and cholesterol, DOPC, and PEG-DMG were dissolved in ethanol at a molar ratio of 50:38.5:10:1.5, luciferase mRNA was dissolved in a 50 mM citric acid buffered saline solution with a pH of 4.0, a volume ratio of the two solutions was 1:3, two phases were mixed rapidly by using microfluidics and a buffer environment was replaced into PBS with a pH of 7.4 by using dialysis or a tangential flow, so as to remove ethanol, and two LNP@mRNAs were respectively prepared.

mice = test: Fluorescence intensity and organ distribution in mice 6 hours after injection of luciferase LNP@mRNA; type: in vivo; settings: mouse, after 6 hours; for organ distribution of mRNA expression: intramuscular injection
Protocol: LNP@mRNAs prepared were respectively injected into a mouse body via a caudal vein or muscle, and after 6 hours, the fluorescence intensity and organ distribution in mice were tested. […] Therefore, a lipid compound with a specific structure can be chosen as a lipid carrier based on an organ in which the nucleic acid drug needs to be enriched.
LNP@mRNAs prepared were respectively injected into a mouse body via a caudal vein or muscle, and after 6 hours, the fluorescence intensity and organ distribution in mice were tested.

[2] = Zeta electric potentials of LNP@mRNA under different pHs; type: physicochemical; settings: Example 26 LNP (cholesterol, DOPC, PEG-DMG), FIG. 7
[3] = LNP@mRNA of compound:cholesterol:DSPC:PEG-DMG 50:38.5:10:1.5 molar, PBS pH 7.4 (Example 25)
[4] = LNP@mRNA of compound:cholesterol:DOPC:PEG-DMG 50:38.5:10:1.5 molar, PBS pH 7.4 (Example 26)

Row | Compound | Entrapment efficiency (%) [1, 3] [%] | PDI [1, 3] | Particle size (nm) [1, 3] [nm] | Zeta (mV) [1, 3] [mV] | particle size of the LNP@mRNA (in words) [1] | other results
1 | CCCCCCCCC(CCCCCC)C(=O)OCCCCOC(=O)CCN(CCCO)CCC(=O)OCCCCOC(=O)C(CCCCCC)CCCCCCCC (stereo not drawn) [Compound 2] | 86 | 0.07 | 68 | −14 | small | 
2 | CCCCCCCCC(CCCCCC)C(=O)OCCCCOC(=O)CCN(CCCCCO)CCC(=O)OCCCCOC(=O)C(CCCCCC)CCCCCCCC (stereo not drawn) [Compound 4] | 82 | 0.09 | 77 | −12 | small | 
3 | CCCCCCC(CCCC)C(=O)OCCCCOC(=O)CCN(CCO)CCC(=O)OCCCCOC(=O)C(CCCC)CCCCCC (stereo not drawn) [Compound 5] | 80 | 0.10 | 114 | −13 |  | 
4 | CCCCCCC(CCCC)C(=O)OCCCCOC(=O)CCN(CCCO)CCC(=O)OCCCCOC(=O)C(CCCC)CCCCCC (stereo not drawn) [Compound 6] | 72 | 0.06 | 125 | −12 |  | 
5 | CCCCCCC(CCCC)C(=O)OCCCCOC(=O)CCN(CCCCO)CCC(=O)OCCCCOC(=O)C(CCCC)CCCCCC (stereo not drawn) [Compound 7] | 82 | 0.05 | 116 | −18 |  | maximum fluorescence of intramuscular injection of LNP@mRNA (effect) (mice; Example 25 LNP (DSPC), comparison among compounds 1-8, FIG. 1): better; organ distribution of mRNA expression (mice; Example 25 LNP (DSPC), FIG. 2 and 3): manly expressed in spleen
6 | CCCCCCC(CCCC)C(=O)OCCCCOC(=O)CCN(CCCn1ccnc1)CCC(=O)OCCCCOC(=O)C(CCCC)CCCCCC (stereo not drawn) [Compound 13] |  |  |  |  |  | maximum fluorescence of intramuscular injection of LNP@mRNA (effect) (mice; Example 26 LNP (DOPC), comparison of compounds 13 and 14, FIG. 4): better; Entrapment efficiency (%) [1, 4]: 85%; PDI [1, 4]: 0.03; Particle size (nm) [1, 4]: 156 nm; Zeta (mV) [1, 4]: −19 mV; Zeta electric potential of the LNP@mRNA ([2]; pH about 2): strong positive electricity; Zeta electric potential of the LNP@mRNA ([2]; pH close to 5): electric neutrality; Zeta electric potential of the LNP@mRNA ([2]; pH greater than 8): strong electronegativity
7 | CCCCCCCCC(CCCCCC)C(=O)OCCCCOC(=O)CCN(CCCn1ccnc1)CCC(=O)OCCCCOC(=O)C(CCCCCC)CCCCCCCC (stereo not drawn) [Compound 14] |  |  |  |  |  | organ distribution of mRNA expression (mice; Example 26 LNP (DOPC), FIG. 5 and 6): mainly expressed in spleen; Entrapment efficiency (%) [1, 4]: 87%; PDI [1, 4]: 0.07; Particle size (nm) [1, 4]: 122 nm; Zeta (mV) [1, 4]: −11 mV

Further lines, with some results ahead:

Row | Entrapment efficiency (%) [1, 3] [%] | PDI [1, 3] | Particle size (nm) [1, 3] [nm] | Zeta (mV) [1, 3] [mV] | particle size of the LNP@mRNA (in words) [1] | Compound | other results
8 | 87 | 0.06 | 95 | −9 | small | CCCCCCCCC(CCCCCC)C(=O)OCCCCOC(=O)CCN(CCO)CCC(=O)OCCCCOC(=O)C(CCCCCC)CCCCCCCC (stereo not drawn) [Compound 1] | 
9 | 86 | 0.07 | 76 | −15 | small | CCCCCCCCC(CCCCCC)C(=O)OCCCCOC(=O)CCN(CCCCO)CCC(=O)OCCCCOC(=O)C(CCCCCC)CCCCCCCC (stereo not drawn) [Compound 3] | 
10 | 82 | 0.07 | 124 | −12 |  | CCCCCCC(CCCC)C(=O)OCCCCOC(=O)CCN(CCCCCO)CCC(=O)OCCCCOC(=O)C(CCCC)CCCCCC (stereo not drawn) [Compound 8] | 
